Results from patent EP2298778A1, “IMIDAZOTHIAZOLE DERIVATIVE HAVING 4,7-DIAZASPIROÝ2.5¨OCTANE RING STRUCTURE” (Daiichi Sankyo Company, Limited, priority 2008, dated 2009).

experiment: Metabolic stability test (microsomal metabolism test); type: in vitro ADME; conditions: pH 7.4; human-derived liver microsomes, test compound remaining after addition of NADP+ and incubation at 37°C for 30 minutes; read-out: metabolic stability of T/C%
Description: (Test Example 3 Metabolic stability test) 100 µL of 100 mM phosphate buffer solution (pH 7.4) containing 3 µM test compound was added to 100 µL of reaction solution containing 100 mM phosphate buffer solution (pH 7.4), 30 mM glucose 6-phosphate, 10 mM MgCl2·6H2O, 3 units/mL glucose 6-phosphate 1-dehydrogenase, and 0.3 to 1.5 mgP/mL human liver microsomes and the mixture was incubated at 37°C for 20 minutes. Then, 70 µL of 100 mM phosphate buffer solution (pH 7.4) containing 3 mM NADP^+ was added and the mixture was incubated at 37°C for 30 minutes to conduct a microsomal metabolism test. The metabolic stability was calculated according to the following formula: T/C (%) = ((concentration of test compound after addition of NADP)^+and incubation for30minutes)/((concentration of test compound before addition of NADP)^+) × 100. [formula] […]

SMILES | remaining at 0.5 h [%]
CC(C)C1=C(C(=O)N2[C@H](C)CC[C@H]2C(=O)N2CCNC3(CC3)C2)SC2=N[C@@](C)(c3ccc(Cl)cc3)[C@@H](c3ccc(Cl)cc3)N21 [Example 1, 7-[(5R)-1-{[(5R,6S)-5,6-bis(4-chlorophenyl)-3-isopropyl-6-methyl-5,6-dihydroimidazo[2,1-b][1,3]thiazol-2-yl]carbonyl}-5-methyl-L-prolyl]-4,7-diazaspiro[2.5]octane] | ≥ 50
CC(C)C1=C(C(=O)N2[C@H](C)CC[C@H]2C(=O)N2CCN(C)C3(CC3)C2)SC2=N[C@@](C)(c3ccc(Cl)cc3)[C@@H](c3ccc(Cl)cc3)N21 [Example 2, 7-[(5R)-1-{[(5R,6S)-5,6-bis(4-chlorophenyl)-3-isopropyl-6-methyl-5,6-dihydroimidazo[2,1-b][1,3]thiazol-2-yl]carbonyl}-5-methyl-L-prolyl]-4-methyl-4,7-diazaspiro[2.5]octane] | ≥ 50
CC(C)C1=C(C(=O)N2[C@H](C)CC[C@H]2C(=O)N2CCN(CCO)C3(CC3)C2)SC2=N[C@@](C)(c3ccc(Cl)cc3)[C@@H](c3ccc(Cl)cc3)N21 [Example 3, 2-{7-[(5R)-1-{[(5R,6S)-5,6-bis(4-chlorophenyl)-3-isopropyl-6-methyl-5,6-dihydroimidazo[2,1-b][1,3]thiazol-2-yl]carbonyl}-5-methyl-L-prolyl]-4,7-diazaspiro[2.5]oct-4-yl}ethanol] | ≥ 50
CC(C)C1=C(C(=O)N2[C@H](C)CC[C@H]2C(=O)N2CCNC3(CC3)C2)SC2=N[C@@](C)(c3ccc(Cl)cc3)[C@@H](c3ccc(Cl)c(F)c3)N21 [Example 5, 7-[(5R)-1-{[(5R,6S)-5-(4-chloro-3-fluorophenyl)-6-(4-chlorophenyl)-3-isopropyl-6-methyl-5,6-dihydroimidazo[2,1-b][1,3]thiazol-2-yl]carbonyl}-5-methyl-L-prolyl]-4,7-diazaspiro[2.5]octane] | ≥ 50
CC(C)C1=C(C(=O)N2[C@H](C)CC[C@H]2C(=O)N2CCN(C)C3(CC3)C2)SC2=N[C@@](C)(c3ccc(Cl)cc3)[C@@H](c3ccc(Cl)c(F)c3)N21 [Example 6, 7-[(5R)-1-{[(5R,6S)-5-(4-chloro-3-fluorophenyl)-6-(4-chlorophenyl)-3-isopropyl-6-methyl-5,6-dihydroimidazo[2,1-b][1,3]thiazol-2-yl]carbonyl}-5-methyl-L-prolyl]-4-methyl-4,7-diazaspiro[2.5]octane] | ≥ 50

The remaining lines, values ahead:

remaining at 0.5 h [%] | SMILES
≥ 50 | CC(C)C1=C(C(=O)N2[C@H](C)CC[C@H]2C(=O)N2CCN(CCO)C3(CC3)C2)SC2=N[C@@](C)(c3ccc(Cl)cc3)[C@@H](c3ccc(Cl)c(F)c3)N21 [Example 7, 2-{7-[(5R)-1-{[(5R,6S)-5-(4-chloro-3-fluorophenyl)-6-(4-chlorophenyl)-3-isopropyl-6-methyl-5,6-dihydroimidazo[2,1-b][1,3]thiazol-2-yl]carbonyl}-5-methyl-L-prolyl]-4,7-diazaspiro[2.5]oct-4-yl}ethanol]
≥ 50 | CC(C)C1=C(C(=O)N2[C@H](C)CC[C@H]2C(=O)N2CCNC3(CC3)C2)SC2=N[C@@](C)(c3ccc(Cl)nc3)[C@@H](c3ccc(Cl)cc3)N21 [Example 8, 7-[(5R)-1-{[(5R,6S)-5-(4-chlorophenyl)-6-(6-chloropyridin-3-yl)-3-isopropyl-6-methyl-5,6-dihydroimidazo[2,1-b][1,3]thiazol-2-yl]carbonyl}-5-methyl-L-prolyl]-4,7-diazaspiro[2.5]octane]
≥ 50 | CC(C)C1=C(C(=O)N2[C@H](C)CC[C@H]2C(=O)N2CCN(C)C3(CC3)C2)SC2=N[C@@](C)(c3ccc(Cl)nc3)[C@@H](c3ccc(Cl)cc3)N21 [Example 9, 7-[(5R)-1-{[(5R,6S)-5-(4-chlorophenyl)-6-(6-chloropyridin-3-yl)-3-isopropyl-6-methyl-5,6-dihydroimidazo[2,1-b][1,3]thiazol-2-yl]carbonyl}-5-methyl-L-prolyl]-4-methyl-4,7-diazaspiro[2.5]octane]
